According to US20070088043A1, “Novel HDAC inhibitors” (ORCHID RESEARCH LABORATORIES LIMITED., priority 2005, published 2007):

What was measured:
[1] = system: NCIH 460 cells; assay: Anti-cancer screen (MTT), NCIH460; format: cell-based; parameters: NCIH460 TGI: unit: uM; details: for GI50: concentration to decrease % growth by 50%; for IC100: read-out: NCIH460 TGI; for LC50: concentration to decrease % growth by 150%
Method: (§1) Experimental drugs are screened for anti-cancer activity in three cell lines for their GI50, TGI and LC50 values (using five concentrations for each compound). The cell lines are maintained in DMEM containing 10% fetal bovine serum. 96 well micro titer plates are inoculated with cells in 100 μL for 24 h at 37° C., 5% CO2, 95% air and 100% relative humidity. 5000 HCT 116 cells/well, 5000 NCIH 460 cells/well and 5000 U251 cells/well are plated. A separate plate with these cell lines is also inoculated to determine cell viability before the addition of the compounds (T0).
(§2) Following 24-hour incubation, experimental drugs are added to the 96 well plates. Each plate contains one of the above cell lines and the following in triplicate: five different concentrations (0.01, 0.1, 1, 10 and 100 μM) of four different compounds, appropriate dilutions of a cytotoxic standard and control (untreated) wells. Compounds are dissolved in DMSO to make 20 mM stock solutions on the day of drug addition and frozen at −20° C. Serial dilutions of these 20 mM stock solutions are made in complete growth medium such that 100 μL of these drug solutions in medium, of final concentrations equaling 0.01, 0.1, 1, 10 and 100 μM can be added to the cells in triplicate. Standard drugs whose anti-cancer activity has been well documented and which are regularly used are doxorubicin and SAHA.
(§3) For To measurement, 24 hours after seeding the cells, 10 μL of 3-(4,5-Dimethyl-2-thiazolyl)-2,5-diphenyl-2H-tetrazolium (MTT) solution per well is added and incubation carried out for 3 hours at 37° C., 5% CO2, 95% air and 100% relative humidity, protected from light. Cells incubated with compounds for 48 hours are treated similarly except with the addition of 20 μL MTT solution per well and a subsequent incubation under the same conditions. After 3 hours of MTT incubation, well contents are aspirated carefully followed by addition of 150 μL DMSO per well. Plates are agitated to ensure solution of the formazan crystals in DMSO and absorbance read at 570 nm. […]

[2] = system: HCT 116 cells; assay: Anti-cancer screen (MTT), HCT116; format: cell-based; parameters: HCT116 TGI: unit: uM; details: for GI50: concentration to decrease % growth by 50%; for IC100: read-out: HCT116 TGI; for LC50: concentration to decrease % growth by 150%
Method: as §1, §2, §3

[3] = system: MDAMB231/U251; assay: Anti-cancer screen (MTT), MDAMB231/U251; format: cell-based; parameters: MDAMB231/U251 TGI: unit: uM; details: MDAMB231/U251 cells, 48 hours; for GI50: concentration to decrease % growth by 50%; for IC100: read-out: MDAMB231/U251 TGI; for LC50: concentration to decrease % growth by 150%
Method: as §1, §2, §3

[4] = system: NCIH460, HCT116, MDAMB231/U251; assay: Anti-cancer screen, mean GI50 over the cell lines; format: cell-based; details: in µM
Method: as §1, §2, §3

[5] = system: HDAC (Mouse Liver Extract); assay: Histone Deacetylase (HDAC) Inhibition Assay using Boc-Lys (Ac)-AMC Substrate; format: biochemical; details: mouse liver enzyme, NA = No Activity; for HDAC Inhibition 1 μM / HDAC Inhibition 10 μM: in % (unit assumed)
From the text: HDAC Activitv Screening: Histone Deacetylase (HDAC) Inhibition Assay using Boc-Lys (Ac)-AMC Substrate:
Inhibition of HDAC has been implicated to modulate transcription and to induce apoptosis or differentiation in cancer cells. The fluorometric assay provides a fast and fluorescence based method that eliminates radioactivity, extractions or chromatography, as used in traditional assays. The assay based on two steps. First, the HDAC fluorometric substrate, which comprises an acetylated lysine side chain, is incubated with a sample containing HDAC activity (Mouse Liver Extract). Deacetylation of the substrate sensitizes the substrate, in the second step; treatment with the Trypsin stop solution produces a fluorophore that can be easily analyzed using fluorescence plate reader.
Assay was done in 96 well black microplate and total volume of the assay is 100 ul. Mouse liver enzyme is diluted 1:6 with HDAC buffer. Enzyme cocktail made of 10 ul of diluted enzyme and 30 ul of HDAC buffer. 40 ul of enzyme cocktail dispensed into each well. 10 ul of different concentrations of inhibitor added in to each well, except enzyme control well. Preincubated the plate at 30° C. for 5 minutes. The HDAC reaction is started by adding 50 ul of HDAC substrate (Boc-Lys (Ac)-AMC Substrate) solution. Incubated the plate at 30° C. for 30 minutes. Adding 100 ul of Trypsin stop solution stops the reaction. The plate is incubated again at 30° C. for 20-30 minutes. The release of AMC is monitored by measuring the fluorescence at excitation wavelength of 365 or 360 nm and emission wavelength of 440 or 460 nm. Buffer and substrate alone kept for blank subtraction. (Dennis Wegener et al, Anal. Biochem, 321, 2003, 202-208).

[6] = Homo sapiens, NCI-H460, NCIH460 cells, 48 hours, MTT
[7] = Homo sapiens, NCI-H460, NCIH460 cells, 48 hours, MTT, concentration to decrease % growth by 100%
[8] = Homo sapiens, HCT-116, HCT116 cells, 48 hours, MTT
[9] = Homo sapiens, HCT-116, HCT116 cells, 48 hours, MTT, concentration to decrease % growth by 100%
[10] = concentration to decrease % growth by 100%

Compound | GI50 [1, 6] [µM] | IC100 [1, 7] [µM] | LC50 [1, 6] [µM] | GI50 [2, 8] [µM] | IC100 [2, 9] [µM] | LC50 [2, 8] [µM] | GI50 [3] [µM] | IC100 [3, 10] [µM] | LC50 [3] [µM] | Mean GI50 [4] | HDAC Inhibition 1 μM [5] | CC50 [1] [µM] | GI50 ([1]; NCIH460 cells, 48 hours, MTT) [µM] | NCIH460 TGI ([1]; NCIH460 cells, 48 hours, MTT, concentration to decrease % growth by 100%) | CC50 [2] [µM] | GI50 ([2]; HCT116 cells, 48 hours, MTT) [µM] | HCT116 TGI ([2]; HCT116 cells, 48 hours, MTT, concentration to decrease % growth by 100%) | MDAMB231/U251 TGI [3, 10] | HDAC Inhibition 10 μM [5] | IC50 [5] [µM]
CC(=O)N(OCc1ccccc1)C(=O)CCCCCCC(=O)N1CCN(CC(=O)Nc2nc3c(C)cccc3s2)CC1 [Example 41] | 26 | 100 | > 100 | 4.5 | 53 | > 100 | 0.1 | 6.2 | > 100 | 10.2 | 0.6 | – | – | – | – | – | – | – | – | –
CCOc1ccc2nc(NC(=O)CN3CCN(C(=O)CCCCCCC(=O)NO)CC3)sc2c1 [Example 32, 8-{4-[2-(6-Ethoxy-1,3-benzothiazol-2-ylamino)-2-oxoethyl]piperazin-1-yl}-N-hydroxy-8-oxo octanamide] | – | – | – | – | – | – | 1.5 | – | 98 | 15.50 | 60.30 | > 100 | 38 | 72 | 95 | 7 | 42 | 9.5 | 98.91 | –
Cc1ccc2nc(NC(=O)CN3CCN(C(=O)CCCCCS)CC3)sc2c1 [Example 25, N-6-methyl-1,3-benzothiazol-2-yl-2-[4-(6-mercaptohexanoyl)piperazin-1-yl]acetamide] | 9 | > 100 | > 100 | 3.5 | > 100 | > 100 | 0.07 | 0.8 | > 100 | 4.2 | – | – | – | – | – | – | – | – | 3.6 | –
CC(=O)SCCCCC(=O)N1CCN(CC(=O)Nc2nc3ccccc3s2)CC1 [Example 8, 2-[4-(5-Thioacetylpentanoyl)piperazin-1-yl]-N-(1,3-benzothiazol-2-yl)acetamide] | 18 | > 100 | > 100 | 7 | 80 | > 100 | > 100 | > 100 | > 100 | 12.50 | 31.41 | – | – | – | – | – | – | – | 69.85 | –
O=C(CN1CCN(C(=O)CCCCCS)CC1)Nc1nc2ccccc2s1 [Example 24, N-1,3-benzothiazol-2-yl-2-[4-(6-mercaptohexanoyl)piperazin-1-yl]acetamide] | 60 | > 100 | > 100 | 0.7 | > 100 | > 100 | 5 | 66 | > 100 | 21.90 | 4 | – | – | – | – | – | – | – | 27.4 | –
O=C(CCCCCCC(=O)N1CCN(CC(=O)Nc2cccc(F)c2)CC1)NO [Example 36, 8-{4-[2-(3-Fluorophenyl-2-ylamino)-2-oxoethyl]piperazin-1-yl}-N-hydroxy-8-oxo octanamide] | 52 | > 100 | > 100 | 40 | 82 | > 100 | 27 | 62 | > 100 | 39.67 | 98.2 | – | – | – | – | – | – | – | 72.99 | 0.95
O=C(CCCCCCC(=O)N1CCN(CC(=O)Nc2ccccc2)CC1)NO [Example 31, 8-{4-[2-(Phenyl-2-ylamino)-2-oxoethyl]piperazin-1-yl}-N-hydroxy-8-oxo octanamide] | 60 | > 100 | > 100 | 60 | > 100 | > 100 | 0.6 | 94 | > 100 | 40.20 | 45.20 | – | – | – | – | – | – | – | 84.96 | –
CC(=O)SCCCCCC(=O)N1CCN(CC(=O)Nc2nc(C)cs2)CC1 [Example 17, 2-[4-(6-Thioacetylhexanoyl)piperazin-1-yl]-N-(4-methyl-1,3-thiazol-2-yl)acetamide] | 7.5 | > 100 | > 100 | 26 | > 100 | > 100 | 67 | > 100 | > 100 | 33.50 | 68.04 | – | – | – | – | – | – | – | 96.19 | –
CC(=O)SCCCCC(=O)N1CCN(CC(=O)Nc2ccccc2)CC1 [Example 16, 2-[4-(5-Thioacetylpentanoyl)piperazin-1-yl]-N-(phenyl-2-yl)acetamide] | 30 | 52 | > 100 | 58 | > 100 | > 100 | 1 | > 100 | > 100 | 29.67 | 29.26 | – | – | – | – | – | – | – | 68.52 | –
CSCC[C@@H](N)C(=O)NCCCCCC(=O)N1CCN(CC(=O)Nc2nc3ccccc3s2)CC1 [Example 42] | 56 | > 100 | > 100 | 26 | 78 | > 100 | 99.5 | > 100 | > 100 | 61 | – | – | – | – | – | – | – | – | – | –
COc1cccc2sc(NC(=O)CN3CCN(C(=O)CCCCCN(OCc4ccccc4)C(C)=O)CC3)nc12 [Example 28, N-4-methoxy-1,3-benzothiazol-2-yl-2-{6-[6 (N-acetyl-O-benzyl)hexanoyl]piperazin-1-yl}acetamide] | 21 | > 100 | > 100 | 5.5 | 58 | > 100 | 0.08 | 9 | > 100 | 8.86 | – | – | – | – | – | – | – | – | – | –
Cc1cccc2sc(NC(=O)CN3CCN(C(=O)CCCCCNO)CC3)nc12 [Example 27] | 8 | > 100 | > 100 | 8 | > 100 | > 100 | 28 | 80 | > 100 | 14.70 | – | – | – | – | – | – | – | – | – | –
